Source: patent US20230295260A1, “GLP RECEPTOR AGONISTS” (HEPTARES THERAPEUTICS LIMITED, priority 2020, published 2023)
Where two headings read alike, the source gives them in different places. Non-standard residues stand in square brackets, D forms with d. Residues, ends and D or L forms follow the SMILES beside them. Groups on a side chain read outwards from the residue. *: point of attachment. Malonyl(2,2-Me2,histaminyl) = CC(C)(C(=O)NCCc1cnc[nH]1)C(=O)*; Ala(1H-tetrazol-5-yl) = N[C@@H](Cc1nnn[nH]1)C(=O)O; αMeF = C[C@](N)(Cc1ccccc1)C(=O)O; αMeL = CC(C)C[C@](C)(N)C(=O)O; Lauroyl = CCCCCCCCCCCC(=O)*; Nle = CCCC[C@H](N)C(=O)O; Aib = CC(C)(N)C(=O)O; Alloc = C=CCOC(=O)*; βAla = NCCC(=O)O

What was measured:
human GLP1 receptor = target: T1, human GLP1 receptor (Homo sapiens, UniProt P43220); experiment: cAMP accumulation assay (HTRF), functional agonism of human GLP1 receptor in HEK cells; assay type: cell-based; conditions: for EC50: read-out: Human GLP-1R agonist cAMP pEC50 (converted)
T1 construct: expressed in transfected cells; host or cells: HEK cells, BacMam virus transduction
T1 sequence (P43220 24-463): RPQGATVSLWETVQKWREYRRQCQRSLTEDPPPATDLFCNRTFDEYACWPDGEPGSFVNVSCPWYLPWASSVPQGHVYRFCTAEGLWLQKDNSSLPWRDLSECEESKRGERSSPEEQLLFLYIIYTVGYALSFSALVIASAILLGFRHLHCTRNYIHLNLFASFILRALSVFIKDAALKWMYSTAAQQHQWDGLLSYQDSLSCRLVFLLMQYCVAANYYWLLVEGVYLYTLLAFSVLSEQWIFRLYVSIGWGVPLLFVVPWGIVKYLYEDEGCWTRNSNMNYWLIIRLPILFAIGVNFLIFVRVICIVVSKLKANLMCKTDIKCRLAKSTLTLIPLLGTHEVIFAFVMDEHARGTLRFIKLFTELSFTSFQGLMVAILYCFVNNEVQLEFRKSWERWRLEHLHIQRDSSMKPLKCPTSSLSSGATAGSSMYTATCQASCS

human GLP2 receptor = target: T2, human GLP2 receptor (Homo sapiens, UniProt O95838); experiment: cAMP accumulation assay (HTRF), functional agonism of human GLP2 receptor in HEK cells; conditions: for Emax: HEK293, read-out: Human GLP-2R agonist cAMP Emax;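 for all read-outs here: HEK cells transduced via BacMam to express human GLP2 receptor, agonist-stimulated cAMP measured by HTRF after 45 min at 37 °C in HBSS with 0.5 mM IBMX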
T2 sequence (O95838 1-553): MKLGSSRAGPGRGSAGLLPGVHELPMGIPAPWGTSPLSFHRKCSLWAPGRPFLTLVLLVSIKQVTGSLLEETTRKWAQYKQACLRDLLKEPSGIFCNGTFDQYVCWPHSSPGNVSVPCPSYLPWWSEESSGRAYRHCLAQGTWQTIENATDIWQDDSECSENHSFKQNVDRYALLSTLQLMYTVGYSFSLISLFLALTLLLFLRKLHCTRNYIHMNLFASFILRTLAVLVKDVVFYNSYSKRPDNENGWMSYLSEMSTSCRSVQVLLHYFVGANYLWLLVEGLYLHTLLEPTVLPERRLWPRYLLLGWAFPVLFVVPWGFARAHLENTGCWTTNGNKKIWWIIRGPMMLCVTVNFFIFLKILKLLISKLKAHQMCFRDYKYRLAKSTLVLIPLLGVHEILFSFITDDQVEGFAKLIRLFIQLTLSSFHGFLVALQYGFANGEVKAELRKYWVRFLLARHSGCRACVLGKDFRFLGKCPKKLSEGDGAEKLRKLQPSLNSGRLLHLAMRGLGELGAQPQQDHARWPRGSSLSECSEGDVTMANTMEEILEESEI
Method: The functional activity of the peptides were assessed using a HTRF cAMP assay. pEC50 values are quoted.
cAMP production upon agonist stimulation of human GLP2 or GLP1 receptor was assessed utilizing HiRange cAMP kit (Cisbio). In brief, HEK cells were infected with either human GLP2 or GLP1 receptor BacMam virus for 24 hours and frozen for later use in the assay. […] Cells were prepared in the assay buffer (HBSS (Lonza) supplemented with 0.5 mM IBMX (Tocris)). After 45 min incubation at 37° C., the reaction was stopped by addition of the HTRF detection reagents in the lysis buffer provided in the kit.

[1] = HEK293, HEK cells, human GLP1 receptor BacMam, 45 min 37° C., read-out: Human GLP-1R agonist cAMP Emax
[2] = HEK cells, human GLP1 receptor BacMam, 45 min 37° C.

SMILES | Emax (human GLP1 receptor; [1]) | EC50 (human GLP1 receptor; [2]) | EC50 (human GLP2 receptor) | Emax (human GLP2 receptor) | Emax (human GLP1 receptor; HEK293, read-out: Human GLP-1R agonist cAMP Emax)
C=CCOC(=O)NCCCC[C@H](NC(=O)[C@H](CC(C)C)NC(=O)[C@H](CC(=O)O)NC(=O)[C@H](CC(C)C)NC(=O)[C@@H](NC(=O)[C@@H](NC(=O)[C@@H](Cc1ccccc1)NC(=O)[C@H](CCCC)NC(=O)[C@H](CCC(=O)O)NC(=O)[C@H](CC(=O)O)NC(=O)[C@H](CO)NC(=O)[C@](C)(Cc1ccccc1)NC(=O)[C@H](CO)NC(=O)[C@@H](C)NC(=O)[C@H](Cc1nn[nH]n1)NC(=O)C(C)(C)C(=O)NCCc1c[nH]cn1)[C@@H](C)O)[C@@H](C)CC)C(=O)NC(C)(C)C(=O)N[C@@H](C)C(=O)N[C@@H](CCCCN)C(=O)N[C@@H](CC(=O)O)C(=O)N[C@@H](Cc1ccccc1)C(=O)N[C@H](C(=O)N[C@@H](CC(N)=O)C(=O)N[C@@H](Cc1c[nH]c2ccccc12)C(=O)N[C@@H](CC(C)C)C(=O)N[C@H](C(=O)N[C@@H](CCC(N)=O)C(=O)N[C@H](C(=O)N[C@@H](CCCCN)C(=O)N[C@H](C(=O)N[C@H](C(=O)N[C@@H](CC(=O)O)C(N)=O)[C@@H](C)O)[C@@H](C)CC)[C@@H](C)O)[C@@H](C)CC)[C@@H](C)CC [Example 11] ({Malonyl(2,2-Me2,histaminyl)}-[Ala(1H-tetrazol-5-yl)][dA]S[αMeF]SDE[Nle][dF]TILDLK(Alloc)[Aib]AKDFINWLIQTKITD-NH2) | 95.4% | 1.58 nM | 0.0126 nM | 102% | 
CCCCCCCCCCCC(=O)NCCC(=O)NCCCC[C@H](NC(=O)[C@H](CC(N)=O)NC(=O)[C@H](CC(=O)O)NC(=O)[C@H](CC(C)C)NC(=O)[C@@H](NC(=O)[C@@H](NC(=O)[C@@H](Cc1ccccc1)NC(=O)[C@H](CCCC)NC(=O)[C@H](CCC(=O)O)NC(=O)[C@H](CC(=O)O)NC(=O)[C@H](CO)NC(=O)[C@H](Cc1ccccc1)NC(=O)[C@H](CO)NC(=O)[C@@H](C)NC(=O)[C@H](Cc1nn[nH]n1)NC(=O)C(C)(C)C(=O)NCCc1c[nH]cn1)[C@@H](C)O)[C@@H](C)CC)C(=O)NC(C)(C)C(=O)N[C@@H](C)C(=O)N[C@@H](CCCCN)C(=O)N[C@@H](CC(=O)O)C(=O)N[C@@H](Cc1ccccc1)C(=O)N[C@H](C(=O)N[C@@H](CC(N)=O)C(=O)N[C@@H](Cc1c[nH]c2ccccc12)C(=O)N[C@@H](CC(C)C)C(=O)N[C@H](C(=O)N[C@@H](CCC(N)=O)C(=O)N[C@H](C(=O)N[C@@H](CCCCN)C(=O)N[C@H](C(=O)N[C@H](C(=O)N[C@@H](Cc1ccccc1)C(N)=O)[C@@H](C)O)[C@@H](C)CC)[C@@H](C)O)[C@@H](C)CC)[C@@H](C)CC [Example 21] ({Malonyl(2,2-Me2,histaminyl)}-[Ala(1H-tetrazol-5-yl)][dA]SFSDE[Nle][dF]TILDNK([βAla-Lauroyl])[Aib]AKDFINWLIQTKITF-NH2; C-terminus assumed) |  |  |  | 99.7% | 91.5%

Continued, in another order:

Emax (human GLP1 receptor; [1]) | EC50 (human GLP1 receptor; [2]) | EC50 (human GLP2 receptor) | Emax (human GLP2 receptor) | SMILES | Emax (human GLP1 receptor; HEK293, read-out: Human GLP-1R agonist cAMP Emax)
96.1% | 12.6 nM | 0.01 nM | 101% | C=CCOC(=O)NCCCC[C@H](NC(=O)[C@H](C)NC(=O)[C@H](C)NC(=O)[C@H](CCCCNC(=O)OCC=C)NC(=O)[C@H](CC(C)C)NC(=O)[C@H](CC(=O)O)NC(=O)[C@H](CC(C)C)NC(=O)[C@@H](NC(=O)[C@@H](NC(=O)[C@@H](Cc1ccccc1)NC(=O)[C@H](CCCC)NC(=O)[C@H](CCC(=O)O)NC(=O)[C@H](CC(=O)O)NC(=O)[C@H](CO)NC(=O)[C@H](Cc1ccccc1)NC(=O)[C@H](CO)NC(=O)CNC(=O)[C@H](Cc1nn[nH]n1)NC(=O)C(C)(C)C(=O)NCCc1c[nH]cn1)[C@@H](C)O)[C@@H](C)CC)C(=O)N[C@@H](CC(=O)O)C(=O)N[C@@H](Cc1ccccc1)C(=O)N[C@H](C(=O)N[C@@H](CC(N)=O)C(=O)N[C@@H](Cc1c[nH]c2ccccc12)C(=O)N[C@@H](CC(C)C)C(=O)N[C@H](C(=O)N[C@@H](CCC(N)=O)C(=O)N[C@H](C(=O)N[C@@H](CCCCN)C(=O)N[C@H](C(=O)N[C@H](C(=O)N[C@@H](CC(=O)O)C(N)=O)[C@@H](C)O)[C@@H](C)CC)[C@@H](C)O)[C@@H](C)CC)[C@@H](C)CC [Example 14] ({Malonyl(2,2-Me2,histaminyl)}-[Ala(1H-tetrazol-5-yl)]GSFSDE[Nle][dF]TILDLK(Alloc)AAK(Alloc)DFINWLIQTKITD-NH2) | 
96% | 15.8 nM | 0.01 nM | 102% | C=CCOC(=O)NCCCC[C@H](NC(=O)[C@H](C)NC(=O)C(C)(C)NC(=O)[C@H](CCCCNC(=O)OCC=C)NC(=O)[C@H](CC(C)C)NC(=O)[C@H](CC(=O)O)NC(=O)[C@H](CC(C)C)NC(=O)C(C)(C)NC(=O)[C@@H](NC(=O)[C@@H](Cc1ccccc1)NC(=O)[C@H](CCCC)NC(=O)[C@H](CCC(=O)O)NC(=O)[C@H](CC(=O)O)NC(=O)[C@H](CO)NC(=O)[C@H](Cc1ccccc1)NC(=O)[C@H](CO)NC(=O)CNC(=O)[C@H](Cc1nn[nH]n1)NC(=O)C(C)(C)C(=O)NCCc1c[nH]cn1)[C@@H](C)O)C(=O)N[C@@H](CC(=O)O)C(=O)N[C@@H](Cc1ccccc1)C(=O)N[C@H](C(=O)N[C@@H](CC(N)=O)C(=O)N[C@@H](Cc1c[nH]c2ccccc12)C(=O)N[C@@H](CC(C)C)C(=O)N[C@H](C(=O)N[C@@H](CCC(N)=O)C(=O)N[C@H](C(=O)N[C@@H](CCCCN)C(=O)N[C@H](C(=O)N[C@H](C(=O)N[C@@H](CC(=O)O)C(N)=O)[C@@H](C)O)[C@@H](C)CC)[C@@H](C)O)[C@@H](C)CC)[C@@H](C)CC [Example 16] ({Malonyl(2,2-Me2,histaminyl)}-[Ala(1H-tetrazol-5-yl)]GSFSDE[Nle][dF]T[Aib]LDLK(Alloc)[Aib]AK(Alloc)DFINWLIQTKITD-NH2) | 
94% | 6.31 nM | 0.01 nM | 102% | C=CCOC(=O)NCCCC[C@H](NC(=O)[C@H](CC(C)C)NC(=O)[C@H](CC(=O)O)NC(=O)[C@H](CC(C)C)NC(=O)[C@@H](NC(=O)[C@@H](NC(=O)[C@@H](Cc1ccccc1)NC(=O)[C@H](CCCC)NC(=O)[C@H](CCC(=O)O)NC(=O)[C@H](CC(=O)O)NC(=O)[C@H](CO)NC(=O)[C@H](Cc1ccccc1)NC(=O)[C@H](CO)NC(=O)CNC(=O)[C@H](Cc1nn[nH]n1)NC(=O)C(C)(C)C(=O)NCCc1c[nH]cn1)[C@@H](C)O)[C@@H](C)CC)C(=O)NC(C)(C)C(=O)N[C@@H](C)C(=O)N[C@@H](CCCCN)C(=O)N[C@@H](CC(=O)O)C(=O)N[C@@H](Cc1ccccc1)C(=O)N[C@H](C(=O)N[C@@H](CC(N)=O)C(=O)N[C@@H](Cc1c[nH]c2ccccc12)C(=O)N[C@@H](CC(C)C)C(=O)N[C@H](C(=O)N[C@@H](CCC(N)=O)C(=O)N[C@H](C(=O)N[C@@H](CCCCN)C(=O)N[C@H](C(=O)N[C@H](C(=O)N[C@@H](CC(=O)O)C(N)=O)[C@@H](C)O)[C@@H](C)CC)[C@@H](C)O)[C@@H](C)CC)[C@@H](C)CC [Example 18] ({Malonyl(2,2-Me2,histaminyl)}-[Ala(1H-tetrazol-5-yl)]GSFSDE[Nle][dF]TILDLK(Alloc)[Aib]AKDFINWLIQTKITD-NH2) | 
92.7% | 2.51 nM | 0.01 nM | 102% | C=CCOC(=O)NCCCC[C@H](NC(=O)[C@](C)(CC(C)C)NC(=O)[C@H](CC(=O)O)NC(=O)[C@H](CC(C)C)NC(=O)[C@@H](NC(=O)[C@@H](NC(=O)[C@@H](Cc1ccccc1)NC(=O)[C@H](CCCC)NC(=O)[C@H](CCC(=O)O)NC(=O)[C@H](CC(=O)O)NC(=O)[C@H](CO)NC(=O)[C@H](Cc1ccccc1)NC(=O)[C@H](CO)NC(=O)CNC(=O)[C@H](Cc1nn[nH]n1)NC(=O)C(C)(C)C(=O)NCCc1c[nH]cn1)[C@@H](C)O)[C@@H](C)CC)C(=O)N[C@@H](C)C(=O)N[C@@H](C)C(=O)N[C@@H](CCCCN)C(=O)N[C@@H](CC(=O)O)C(=O)N[C@@H](Cc1ccccc1)C(=O)N[C@H](C(=O)N[C@@H](CC(N)=O)C(=O)N[C@@H](Cc1c[nH]c2ccccc12)C(=O)N[C@@H](CC(C)C)C(=O)N[C@H](C(=O)N[C@@H](CCC(N)=O)C(=O)N[C@H](C(=O)N[C@@H](CCCCN)C(=O)N[C@H](C(=O)N[C@H](C(=O)N[C@@H](CC(=O)O)C(N)=O)[C@@H](C)O)[C@@H](C)CC)[C@@H](C)O)[C@@H](C)CC)[C@@H](C)CC [Example 19] ({Malonyl(2,2-Me2,histaminyl)}-[Ala(1H-tetrazol-5-yl)]GSFSDE[Nle][dF]TILD[αMeL]K(Alloc)AAKDFINWLIQTKITD-NH2) | 
